Measurements reported in the supplement of paper PMC4380931.

What was measured:
Assay in all cases: apoptotic fraction of cells (caspase-3 NucView488 positive); higher = more apoptosis
[1] = tested on: WM1552C
Description: (§1)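 BRAF V600E/D melanoma cell lines were seeded in 96-well plates, treated in 4 replicates with seven doses (3.16 nM to 3.16 uM) of RAF/MEK inhibitors for 24, 48 or 72 h, and stained with Hoechst 33342 (nuclei) and DEVD-NucView488 caspase-3 substrate. Plates were imaged on an Operetta. Relative viability is the cell count normalised to a DMSO-treated control; apoptosis fraction is the fraction of NucView488-positive nuclei.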

[2] = tested on: C32
Description: as §1

[3] = tested on: WM115
Description: as §1

[4] = tested on: MZ7MEL
Description: as §1

[5] = tested on: LOXIMVI
Description: as §1

CCCS(=O)(=O)Nc1ccc(F)c(C(=O)c2c[nH]c3ncc(Cl)cc23)c1F [PLX4720]
apoptotic fraction of cells
Conditions	0.00316 µM	0.01 µM	0.0316 µM	0.1 µM	0.316 µM	1 µM	3.16 µM
[1], 24 h	0.0609	0.0582	0.0522	0.0708	0.0728	0.0756	0.0738
[1], 48 h	0.0618	0.0656	0.0655	0.0534	0.044	0.0563	0.0762
[1], 72 h	0.0768	0.0708	0.0682	0.063	0.0671	0.0953	0.129
[2], 24 h	0.0873	0.121	0.119	0.153	0.174	0.245	0.29
[2], 48 h	0.0967	0.159	0.158	0.105	0.143	0.465	0.784
[2], 72 h	0.0846	0.0849	0.0684	0.0354	0.215	0.619	0.813
[3], 24 h	0.0488	0.0373	0.0513	0.0369	0.0371	0.0643	0.0673
[3], 48 h	0.0421	0.0454	0.0356	0.0312	0.0333	0.0466	0.122
[3], 72 h	0.0312	0.0316	0.0268	0.0303	0.0415	0.129	0.381
[4], 24 h	0.013	0.0082	0.01	0.00501	0.00918	0.0127	0.0325
[4], 48 h	0.0158	0.0193	0.0129	0.0113	0.0205	0.0277	0.0483
[4], 72 h	0.0184	0.0171	0.0142	0.0198	0.0439	0.105	0.151
[5], 24 h	0.0547	0.0479	0.0396	0.0507	0.033	0.0507	0.0445
[5], 48 h	0.111	0.0809	0.0585	0.0482	0.0482	0.0654	0.113
[5], 72 h	0.211	0.144	0.074	0.0395	0.048	0.0542	0.159

Cn1cnc2c(F)c(Nc3ccc(Br)cc3Cl)c(C(=O)NOCCO)cc21 [Selumetinib]
apoptotic fraction of cells
Conditions	0.00316 µM	0.01 µM	0.0316 µM	0.1 µM	0.316 µM	1 µM	3.16 µM
[1], 24 h	0.0571	0.0689	0.0771	0.0894	0.0876	0.112	0.0803
[1], 48 h	0.065	0.0655	0.0575	0.0656	0.0753	0.0765	0.1
[1], 72 h	0.0885	0.073	0.0737	0.0814	0.104	0.146	0.19
[2], 24 h	0.0878	0.113	0.144	0.213	0.215	0.236	0.272
[2], 48 h	0.0773	0.0963	0.0636	0.107	0.262	0.598	0.83
[2], 72 h	0.103	0.0822	0.0406	0.108	0.403	0.759	0.862
[3], 24 h	0.0496	0.0509	0.0515	0.0423	0.0578	0.102	0.143
[3], 48 h	0.0459	0.0343	0.0345	0.0394	0.072	0.186	0.269
[3], 72 h	0.0278	0.027	0.0324	0.0559	0.115	0.302	0.456
[4], 24 h	0.0105	0.0133	0.0129	0.013	0.021	0.03	0.0358
[4], 48 h	0.02	0.0157	0.0142	0.0195	0.0385	0.0514	0.0696
[4], 72 h	0.0201	0.0173	0.0366	0.108	0.158	0.239	0.314
[5], 24 h	0.0508	0.0393	0.0293	0.0452	0.0393	0.0476	0.0428
[5], 48 h	0.111	0.0778	0.0621	0.0589	0.0582	0.0523	0.0597
[5], 72 h	0.161	0.0676	0.0426	0.0445	0.0604	0.0759	0.105

CCCS(=O)(=O)Nc1ccc(F)c(C(=O)c2c[nH]c3ncc(-c4ccc(Cl)cc4)cc23)c1F [Vemurafenib]
apoptotic fraction of cells
Conditions	0.00316 µM	0.01 µM	0.0316 µM	0.1 µM	0.316 µM	1 µM	3.16 µM
[1], 24 h	0.0617	0.0655	0.0602	0.0665	0.0682	0.0745	0.0696
[1], 48 h	0.078	0.0701	0.0688	0.0684	0.063	0.0641	0.0951
[1], 72 h	0.088	0.0756	0.0733	0.0668	0.0671	0.0874	0.164
[2], 24 h	0.0798	0.139	0.166	0.186	0.202	0.17	0.309
[2], 48 h	0.11	0.173	0.186	0.127	0.0971	0.407	0.862
[2], 72 h	0.0761	0.0907	0.0843	0.061	0.114	0.658	0.928
[3], 24 h	0.0555	0.0451	0.0561	0.0385	0.0444	0.0572	0.0792
[3], 48 h	0.0621	0.0504	0.0424	0.0407	0.0303	0.045	0.116
[3], 72 h	0.0323	0.0325	0.0317	0.0278	0.0361	0.125	0.407
[4], 24 h	0.0137	0.0131	0.00722	0.00978	0.0118	0.0206	0.0379
[4], 48 h	0.0184	0.0167	0.0196	0.0148	0.0203	0.0385	0.0682
[4], 72 h	0.0218	0.0158	0.0159	0.0167	0.0378	0.103	0.193
[5], 24 h	0.0511	0.0524	0.0364	0.0578	0.0383	0.0551	0.0557
[5], 48 h	0.103	0.0517	0.0505	0.0455	0.0414	0.0496	0.0897
[5], 72 h	0.191	0.153	0.0537	0.0438	0.0484	0.074	0.129
